Assay results published in ChEMBL document CHEMBL1149484, “Comparison of the binding of 3-fluoromethyl-7-sulfonyl-1,2,3,4-tetrahydroisoquinolines with their isosteric sulfonamides to the active site of phenylethanolamine N-methyltransferase” (J Med Chem, 2006).
pKi: −log10 of the molar value.

How the values were obtained:
[1] = biological target: T1, Adrenergic receptor alpha-2 (Rattus norvegicus, UniProt P22086+P19328+P22909); experiment: Displacement of [3H]clonidine from Sprague-Dawley rat cortex adrenergic alpha 2 receptor
T1 sequence (P22086 whole entry): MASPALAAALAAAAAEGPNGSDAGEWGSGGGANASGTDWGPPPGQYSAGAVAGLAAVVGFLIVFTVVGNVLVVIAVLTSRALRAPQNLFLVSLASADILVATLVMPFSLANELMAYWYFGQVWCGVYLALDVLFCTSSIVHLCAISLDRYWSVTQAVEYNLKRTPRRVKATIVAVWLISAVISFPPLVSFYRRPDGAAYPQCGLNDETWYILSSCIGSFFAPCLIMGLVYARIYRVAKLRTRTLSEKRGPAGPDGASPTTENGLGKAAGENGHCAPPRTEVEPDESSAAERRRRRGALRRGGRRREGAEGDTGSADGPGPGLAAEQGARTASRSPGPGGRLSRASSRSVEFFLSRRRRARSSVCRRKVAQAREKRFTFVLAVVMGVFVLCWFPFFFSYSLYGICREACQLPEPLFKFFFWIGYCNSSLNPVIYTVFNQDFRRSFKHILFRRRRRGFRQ
T1 sequence (P19328 whole entry): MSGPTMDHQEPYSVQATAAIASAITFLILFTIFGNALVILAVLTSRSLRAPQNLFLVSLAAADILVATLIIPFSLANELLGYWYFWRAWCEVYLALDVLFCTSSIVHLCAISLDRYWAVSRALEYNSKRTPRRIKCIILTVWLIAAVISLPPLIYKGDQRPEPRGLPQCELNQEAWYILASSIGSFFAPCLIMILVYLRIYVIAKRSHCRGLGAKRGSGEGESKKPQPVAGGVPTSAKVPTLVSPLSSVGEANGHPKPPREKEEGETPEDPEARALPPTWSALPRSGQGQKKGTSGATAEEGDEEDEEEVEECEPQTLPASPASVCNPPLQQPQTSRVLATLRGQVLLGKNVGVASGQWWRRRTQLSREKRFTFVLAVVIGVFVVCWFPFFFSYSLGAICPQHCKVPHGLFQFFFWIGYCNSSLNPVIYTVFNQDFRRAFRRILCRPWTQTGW
T1 sequence (P22909 whole entry): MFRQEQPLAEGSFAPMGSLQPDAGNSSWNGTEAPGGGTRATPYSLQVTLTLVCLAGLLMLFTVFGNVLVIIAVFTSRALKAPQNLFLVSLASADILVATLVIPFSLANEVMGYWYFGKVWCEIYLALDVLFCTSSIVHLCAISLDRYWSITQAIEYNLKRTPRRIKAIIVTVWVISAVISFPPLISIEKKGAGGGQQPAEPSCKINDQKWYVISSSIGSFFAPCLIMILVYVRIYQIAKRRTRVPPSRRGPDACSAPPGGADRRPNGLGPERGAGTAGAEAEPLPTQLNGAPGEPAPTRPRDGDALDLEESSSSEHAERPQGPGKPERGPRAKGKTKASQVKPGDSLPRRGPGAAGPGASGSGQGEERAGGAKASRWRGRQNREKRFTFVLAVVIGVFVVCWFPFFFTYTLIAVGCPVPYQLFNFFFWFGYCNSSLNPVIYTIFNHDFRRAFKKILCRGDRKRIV

[2] = Selectivity for human PNMT over rat Adrenergic alpha-2 receptor
[3] = biological target: T2, Phenylethanolamine N-methyltransferase (Homo sapiens, UniProt P11086); experiment: Binding affinity to human PNMT expressed in Escherichia coli by radiochemical assay
T2 sequence (P11086 whole entry): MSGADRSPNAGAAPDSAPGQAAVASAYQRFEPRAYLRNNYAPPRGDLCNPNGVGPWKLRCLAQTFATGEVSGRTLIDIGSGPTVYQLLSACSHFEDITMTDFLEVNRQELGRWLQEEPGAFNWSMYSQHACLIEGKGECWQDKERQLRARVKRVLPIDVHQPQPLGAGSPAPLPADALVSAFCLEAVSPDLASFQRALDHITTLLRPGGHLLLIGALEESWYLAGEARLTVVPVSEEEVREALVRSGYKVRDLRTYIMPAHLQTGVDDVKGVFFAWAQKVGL

Work on CCCS(=O)(=O)c1ccc2c(c1)CNC(CF)C2 (stereo not given) yielded a Ki [1] of 690 µM.

For CCCCS(=O)(=O)c1ccc2c(c1)CNC(CF)C2 (stereo not given), the Ki [1] was 540 µM.

In the case of O=S(=O)(Cc1ccc(Cl)cc1)c1ccc2c(c1)CNC(CF)C2 (stereo not given), the Ki [1] was > 1000 µM.

In the case of O=S(=O)(CCCC(F)(F)F)c1ccc2c(c1)CNC(CF)C2 (stereo not given), the Ki [1] was > 1000 µM.

O=S(=O)(CC(F)(F)F)c1ccc2c(c1)CNC(CF)C2 (stereo not given) showed a Ki [1] of 740 µM.

With CCS(=O)(=O)c1ccc2c(c1)CNC(CF)C2 (stereo not given) the Ki [1] was 1100 µM.

With O=S(=O)(CCC(F)(F)F)c1ccc2c(c1)CNC(CF)C2 (stereo not given) the Ki [1] was > 1000 µM.

COCCCS(=O)(=O)c1ccc2c(c1)CNC(CF)C2 (stereo not given) showed a Ki [1] of 1200 µM.

Compound c1ccc2c(c1)CCNC2 [1,2,3,4-TETRAHYDROISOQUINOLINE] has a Selectivity ratio [2] of 0.06 and a pKi [3] of 5.24.
